# Patent US20020137929A1, “1 - (3-heterocyclylphenyl) isothiourea, -isourea, -guanidine and -amidine herbicidal agents” (Intellectual Property Department, BASF Aktiengesellschaft, priority 1998, published 2002)
# What was measured:
# [1] = tested on: CHEAL (Lambsquarters, Common); assay: Postemergence herbicidal evaluation; format: in vivo, Chenopodium album; details: postemergence
# In short: (§1)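 Each compound, dispersed in an acetone/water mix (50/50) carrying 0.5% TWEEN 20, is nozzle-sprayed at 40 psi on approximately two-week-old seedlings at about 0.0156–0.500 kg/ha. Plants are assessed 4–5 weeks afterward on a 0–9 scale relative to control; duplicate tests are averaged.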
# ECHCG (Barnyardgrass) = assay: Postemergence herbicidal evaluation; format: in vivo, Echinochloa crus-galli; details: postemergence
# In short: as §1
# ORYSAT (Rice, Tebonnet) = assay: Preemergence herbicidal evaluation; format: in vivo, Oryza sativa, (L.) Tebonnet; details: rated 4-5 weeks after treatment
# In short: (§2)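 Herbicidal effect scored visually, 0-9, at 4 to 5 weeks against a control; compound applied preemergence by aqueous acetone spray to seeded soil at about 0.0156 to 0.500 kg/ha.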
# [2] = tested on: TRZAWR (Wheat, Winter, cv Riband); assay: Postemergence herbicidal evaluation; format: in vivo, Triticum aestivum; details: postemergence
# In short: as §1
# [3] = tested on: GLXMAW (Soybean, Williams); assay: Preemergence herbicidal evaluation; format: in vivo, Glycine max, (L.) Merr. cv Williams; details: rated 4-5 weeks after treatment
# In short: as §2
# MOOVA (Monochoria) = assay: Preemergence weed control under flooded paddy conditions; format: in vivo, Monochoria vaginalis; details: rated 3-4 weeks after treatment
# In short: (§3)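 First, seeds or propagules go into the top 0.5 cm of silt loam; next, water is held 1.5 to 3 cm over the soil; then compound (50/50 acetone/water) is pipetted into it at about 0.0313 to 0.500 kg/ha; finally plants are rated visually 0-9 after three to four weeks.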
# AMBEL (Ragweed, Common) [4] = assay: Preemergence herbicidal evaluation; format: in vivo, Ambrosia artemisifolia; details: rated 4-5 weeks after treatment
# In short: as §2
# [5] = tested on: SAGPY (Arrowhead (Pygmaea)); assay: Preemergence weed control under flooded paddy conditions; format: in vivo, Sagittaria pygmaea; details: rated 3-4 weeks after treatment
# In short: as §3
# [6] = tested on: GLXMAW (Soybean, Williams); assay: Postemergence herbicidal evaluation; format: in vivo, Glycine max, (L.) Merr. cv Williams; details: postemergence
# In short: as §1
# [7] = tested on: CHEAL (Lambsquarters, Common); assay: Preemergence herbicidal evaluation; format: in vivo, Chenopodium album; details: rated 4-5 weeks after treatment
# In short: as §2
# CASOB (Sicklepod) [8] = assay: Preemergence herbicidal evaluation; format: in vivo, Cassia obtusifolia; details: rated 4-5 weeks after treatment
# In short: as §2
# ABUTH (Velvetleaf) = assay: Preemergence herbicidal evaluation; format: in vivo, Abutilon theophrasti; details: rated 4-5 weeks after treatment
# In short: as §2
# [9] = tested on: IPOHE (Morningglory, Ivyleaf); assay: Preemergence herbicidal evaluation; format: in vivo, Ipomoea hederacea; details: rated 4-5 weeks after treatment
# In short: as §2
# [10] = tested on: IPOHE (Morningglory, Ivyleaf); assay: Postemergence herbicidal evaluation; format: in vivo, Ipomoea hederacea; details: postemergence
# In short: as §1
# AMBEL (Ragweed, Common) [11] = assay: Postemergence herbicidal evaluation; format: in vivo, Ambrosia artemisifolia; details: postemergence
# In short: as §1
# CASOB (Sicklepod) [12] = assay: Postemergence herbicidal evaluation; format: in vivo, Cassia obtusifolia; details: postemergence
# In short: as §1
structure (smiles),measurement,setting,value
"Cn1c(C(F)(F)F)cc(=O)n(-c2cc(N=C3SCC(=O)N3C3CCC3)c(Cl)cc2F)c1=O [Compound 168, 3-{4-Chloro-5-[(3-cyclobutyl-4-oxo-2-thiazolidinylidene)amino]-2-fluorophenyl}-1-methyl-6-(trifluoromethyl)-2,4(1H,3H)-pyrimidinedione]",Herbicidal rating CHEAL,[1]; rate 0.0156 kg/ha,2.0
same,Herbicidal rating CHEAL,[1]; rate 0.0313 kg/ha,3.0
same,Herbicidal rating CHEAL,[1]; rate 0.0625 kg/ha,4.0
same,Herbicidal rating ECHCG,ECHCG (Barnyardgrass); rate 0.0156 kg/ha,0.0
same,Herbicidal rating ECHCG,ECHCG (Barnyardgrass); rate 0.0313 kg/ha,0.0
same,Herbicidal rating ECHCG,ECHCG (Barnyardgrass); rate 0.0625 kg/ha,4.0
same,Preemergence herbicidal rating ORYSAT,"ORYSAT (Rice, Tebonnet); 0.0156 kg/ha",0.0
same,Preemergence herbicidal rating ORYSAT,"ORYSAT (Rice, Tebonnet); 0.0313 kg/ha",0.0
same,Preemergence herbicidal rating ORYSAT,"ORYSAT (Rice, Tebonnet); 0.0625 kg/ha",0.0
same,Preemergence herbicidal rating ORYSAT,"ORYSAT (Rice, Tebonnet); 0.1250 kg/ha",0.0
same,Preemergence herbicidal rating ORYSAT,"ORYSAT (Rice, Tebonnet); 0.2500 kg/ha",0.0
same,Herbicidal rating TRZAWR,[2]; rate 0.0156 kg/ha,3.5
same,Herbicidal rating TRZAWR,[2]; rate 0.0313 kg/ha,3.5
same,Herbicidal rating TRZAWR,[2]; rate 0.0625 kg/ha,4.0
same,Preemergence herbicidal rating GLXMAW,[3]; 0.0156 kg/ha,0.0
same,Preemergence herbicidal rating GLXMAW,[3]; 0.0313 kg/ha,0.0
same,Preemergence herbicidal rating GLXMAW,[3]; 0.0625 kg/ha,0.0
same,Preemergence herbicidal rating GLXMAW,[3]; 0.1250 kg/ha,0.0
same,Preemergence herbicidal rating GLXMAW,[3]; 0.2500 kg/ha,0.0
same,"herbicidal effect rating, MOOVA",MOOVA (Monochoria); 0.0313 kg/ha,6.0
same,"herbicidal effect rating, MOOVA",MOOVA (Monochoria); 0.0625 kg/ha,6.0
same,"herbicidal effect rating, MOOVA",MOOVA (Monochoria); 0.1250 kg/ha,6.0
same,"herbicidal effect rating, MOOVA",MOOVA (Monochoria); 0.2500 kg/ha,7.0
same,Preemergence herbicidal rating AMBEL,"AMBEL (Ragweed, Common) [4]; 0.0156 kg/ha",0.0
same,Preemergence herbicidal rating AMBEL,"AMBEL (Ragweed, Common) [4]; 0.0313 kg/ha",0.0
same,Preemergence herbicidal rating AMBEL,"AMBEL (Ragweed, Common) [4]; 0.0625 kg/ha",0.0
same,Preemergence herbicidal rating AMBEL,"AMBEL (Ragweed, Common) [4]; 0.1250 kg/ha",0.0
same,Preemergence herbicidal rating AMBEL,"AMBEL (Ragweed, Common) [4]; 0.2500 kg/ha",5.0
same,"herbicidal effect rating, SAGPY",[5]; 0.0313 kg/ha,0.0
same,"herbicidal effect rating, SAGPY",[5]; 0.0625 kg/ha,0.0
same,"herbicidal effect rating, SAGPY",[5]; 0.1250 kg/ha,0.0
same,"herbicidal effect rating, SAGPY",[5]; 0.2500 kg/ha,2.0
same,Herbicidal rating GLXMAW,[6]; rate 0.0156 kg/ha,5.5
same,Herbicidal rating GLXMAW,[6]; rate 0.0313 kg/ha,6.5
same,Herbicidal rating GLXMAW,[6]; rate 0.0625 kg/ha,7.0
same,Preemergence herbicidal rating CHEAL,[7]; 0.0156 kg/ha,3.0
same,Preemergence herbicidal rating CHEAL,[7]; 0.0313 kg/ha,9.0
same,Preemergence herbicidal rating CHEAL,[7]; 0.0625 kg/ha,9.0
same,Preemergence herbicidal rating CHEAL,[7]; 0.1250 kg/ha,9.0
same,Preemergence herbicidal rating CHEAL,[7]; 0.2500 kg/ha,9.0
same,Preemergence herbicidal rating CASOB,CASOB (Sicklepod) [8]; 0.0156 kg/ha,0.0
same,Preemergence herbicidal rating CASOB,CASOB (Sicklepod) [8]; 0.0313 kg/ha,0.0
same,Preemergence herbicidal rating CASOB,CASOB (Sicklepod) [8]; 0.0625 kg/ha,0.0
same,Preemergence herbicidal rating CASOB,CASOB (Sicklepod) [8]; 0.1250 kg/ha,0.0
same,Preemergence herbicidal rating CASOB,CASOB (Sicklepod) [8]; 0.2500 kg/ha,0.0
same,Preemergence herbicidal rating ABUTH,ABUTH (Velvetleaf); 0.0156 kg/ha,0.0
same,Preemergence herbicidal rating ABUTH,ABUTH (Velvetleaf); 0.0313 kg/ha,0.0
same,Preemergence herbicidal rating ABUTH,ABUTH (Velvetleaf); 0.0625 kg/ha,4.0
same,Preemergence herbicidal rating ABUTH,ABUTH (Velvetleaf); 0.1250 kg/ha,9.0
same,Preemergence herbicidal rating ABUTH,ABUTH (Velvetleaf); 0.2500 kg/ha,9.0
same,Preemergence herbicidal rating IPOHE,[9]; 0.0156 kg/ha,0.0
same,Preemergence herbicidal rating IPOHE,[9]; 0.0313 kg/ha,0.0
same,Preemergence herbicidal rating IPOHE,[9]; 0.0625 kg/ha,0.0
same,Preemergence herbicidal rating IPOHE,[9]; 0.1250 kg/ha,3.0
same,Preemergence herbicidal rating IPOHE,[9]; 0.2500 kg/ha,4.0
same,Herbicidal rating IPOHE,[10]; rate 0.0156 kg/ha,5.0
same,Herbicidal rating IPOHE,[10]; rate 0.0313 kg/ha,9.0
same,Herbicidal rating IPOHE,[10]; rate 0.0625 kg/ha,9.0
same,Herbicidal rating AMBEL,"AMBEL (Ragweed, Common) [11]; rate 0.0156 kg/ha",3.0
same,Herbicidal rating AMBEL,"AMBEL (Ragweed, Common) [11]; rate 0.0313 kg/ha",9.0
same,Herbicidal rating AMBEL,"AMBEL (Ragweed, Common) [11]; rate 0.0625 kg/ha",9.0
same,Herbicidal rating CASOB,CASOB (Sicklepod) [12]; rate 0.0156 kg/ha,0.0
same,Herbicidal rating CASOB,CASOB (Sicklepod) [12]; rate 0.0313 kg/ha,0.0
same,Herbicidal rating CASOB,CASOB (Sicklepod) [12]; rate 0.0625 kg/ha,2.0
